Reference: ChEMBL document CHEMBL4507259 (2021)

Columns and labels:
[1] = target: Serine/threonine-protein kinase PAK 3 (Homo sapiens) (UniProt O75914); settings: Compound concentration 1000.0 nM
[2] = target: Mitogen-activated protein kinase kinase kinase kinase 5 (Homo sapiens) (UniProt Q9Y4K4); settings: Compound concentration 1000.0 nM
[3] = target: Activin receptor type-1B (Homo sapiens) (UniProt P36896); settings: Compound concentration 1000.0 nM
[4] = target: Rho-associated protein kinase 1 (Homo sapiens) (UniProt Q13464); settings: Compound concentration 1000.0 nM
[5] = target: Bone morphogenetic protein receptor type-2 (Homo sapiens) (UniProt Q13873); settings: Compound concentration 1000.0 nM
[6] = target: Homeodomain-interacting protein kinase 3 (Homo sapiens) (UniProt Q9H422); settings: Compound concentration 1000.0 nM
[7] = target: Megakaryocyte-associated tyrosine-protein kinase (Homo sapiens) (UniProt P42679); settings: Compound concentration 1000.0 nM
[8] = tested on: Leucine-rich repeat serine/threonine-protein kinase 2 (Homo sapiens), Q5S007 [G2019S]; settings: Compound concentration 1000.0 nM
Chain of Leucine-rich repeat serine/threonine-protein kinase 2 (Homo sapiens), Q5S007 [G2019S] (Q5S007 whole entry G2019S): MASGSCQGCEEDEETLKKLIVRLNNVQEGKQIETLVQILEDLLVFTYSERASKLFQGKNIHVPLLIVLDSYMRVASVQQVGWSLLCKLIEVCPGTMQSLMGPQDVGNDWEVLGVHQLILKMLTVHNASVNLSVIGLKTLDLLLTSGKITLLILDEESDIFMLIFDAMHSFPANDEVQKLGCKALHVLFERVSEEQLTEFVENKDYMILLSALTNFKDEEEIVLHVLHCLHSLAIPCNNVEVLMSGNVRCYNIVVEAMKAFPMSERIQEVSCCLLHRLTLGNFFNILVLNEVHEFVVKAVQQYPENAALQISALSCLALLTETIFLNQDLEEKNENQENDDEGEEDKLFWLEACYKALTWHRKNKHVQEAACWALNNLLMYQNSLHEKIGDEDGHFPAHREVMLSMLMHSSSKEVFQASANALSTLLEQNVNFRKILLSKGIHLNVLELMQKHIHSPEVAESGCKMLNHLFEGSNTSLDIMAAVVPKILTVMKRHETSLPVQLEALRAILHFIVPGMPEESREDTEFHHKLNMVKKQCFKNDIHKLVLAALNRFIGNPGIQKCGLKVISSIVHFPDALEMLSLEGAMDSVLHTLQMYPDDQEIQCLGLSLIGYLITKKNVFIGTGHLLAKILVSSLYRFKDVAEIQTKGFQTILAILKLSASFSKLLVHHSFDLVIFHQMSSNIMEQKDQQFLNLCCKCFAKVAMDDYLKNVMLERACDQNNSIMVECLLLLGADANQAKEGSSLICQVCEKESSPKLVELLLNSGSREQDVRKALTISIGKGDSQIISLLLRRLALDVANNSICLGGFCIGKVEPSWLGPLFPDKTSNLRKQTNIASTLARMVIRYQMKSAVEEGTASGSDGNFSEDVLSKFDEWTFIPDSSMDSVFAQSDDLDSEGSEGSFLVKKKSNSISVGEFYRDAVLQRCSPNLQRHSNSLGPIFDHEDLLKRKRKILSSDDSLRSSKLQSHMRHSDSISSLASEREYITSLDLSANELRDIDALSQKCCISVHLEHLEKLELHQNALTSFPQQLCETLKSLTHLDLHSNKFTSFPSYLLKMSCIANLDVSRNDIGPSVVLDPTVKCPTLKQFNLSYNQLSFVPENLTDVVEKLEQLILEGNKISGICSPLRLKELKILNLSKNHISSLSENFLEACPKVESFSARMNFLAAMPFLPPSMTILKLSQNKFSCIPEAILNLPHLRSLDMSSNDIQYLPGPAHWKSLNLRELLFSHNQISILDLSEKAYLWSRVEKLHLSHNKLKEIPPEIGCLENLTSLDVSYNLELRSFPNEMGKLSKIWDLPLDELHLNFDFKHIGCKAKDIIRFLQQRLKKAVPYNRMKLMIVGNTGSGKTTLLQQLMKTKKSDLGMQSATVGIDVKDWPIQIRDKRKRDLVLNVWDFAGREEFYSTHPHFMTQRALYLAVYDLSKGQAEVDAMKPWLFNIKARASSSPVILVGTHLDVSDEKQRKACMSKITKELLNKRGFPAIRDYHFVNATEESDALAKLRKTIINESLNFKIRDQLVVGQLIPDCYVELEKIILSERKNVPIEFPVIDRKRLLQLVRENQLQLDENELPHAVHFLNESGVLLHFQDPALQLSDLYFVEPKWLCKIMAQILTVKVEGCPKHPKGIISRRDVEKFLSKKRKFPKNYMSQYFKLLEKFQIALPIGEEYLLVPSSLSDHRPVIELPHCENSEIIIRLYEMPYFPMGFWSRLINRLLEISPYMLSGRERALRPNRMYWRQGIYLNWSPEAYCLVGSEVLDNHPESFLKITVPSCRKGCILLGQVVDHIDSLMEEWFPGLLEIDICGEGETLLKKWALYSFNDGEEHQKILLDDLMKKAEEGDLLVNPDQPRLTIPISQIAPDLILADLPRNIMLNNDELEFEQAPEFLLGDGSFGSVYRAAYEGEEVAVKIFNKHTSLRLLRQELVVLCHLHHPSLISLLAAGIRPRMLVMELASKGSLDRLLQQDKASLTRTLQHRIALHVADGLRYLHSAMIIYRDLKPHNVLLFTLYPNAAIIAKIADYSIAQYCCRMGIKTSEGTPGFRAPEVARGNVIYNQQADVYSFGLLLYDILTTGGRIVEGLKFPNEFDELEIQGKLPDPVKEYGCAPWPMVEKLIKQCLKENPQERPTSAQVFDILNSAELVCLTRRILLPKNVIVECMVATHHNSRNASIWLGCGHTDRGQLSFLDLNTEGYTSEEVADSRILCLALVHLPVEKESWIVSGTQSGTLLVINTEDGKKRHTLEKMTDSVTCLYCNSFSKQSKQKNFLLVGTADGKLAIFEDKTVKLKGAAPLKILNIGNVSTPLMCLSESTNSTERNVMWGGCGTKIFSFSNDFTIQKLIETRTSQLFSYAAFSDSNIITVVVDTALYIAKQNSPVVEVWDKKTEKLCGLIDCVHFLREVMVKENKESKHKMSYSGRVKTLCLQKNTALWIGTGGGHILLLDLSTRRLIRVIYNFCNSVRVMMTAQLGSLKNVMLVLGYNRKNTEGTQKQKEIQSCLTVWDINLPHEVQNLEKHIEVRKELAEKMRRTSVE

[9] = target: Homeodomain-interacting protein kinase 4 (Homo sapiens) (UniProt Q8NE63); settings: Compound concentration 1000.0 nM
[10] = target: Cyclin-dependent kinase 7 (Homo sapiens) (UniProt P50613); settings: Compound concentration 1000.0 nM
[11] = tested on: Mast/stem cell growth factor receptor Kit (Homo sapiens), P10721 [V559D,V654A]; settings: Compound concentration 1000.0 nM
[12] = target: Mitogen-activated protein kinase kinase kinase kinase 2 (Homo sapiens) (UniProt Q12851); settings: Compound concentration 1000.0 nM
Chain of Mitogen-activated protein kinase kinase kinase kinase 2 (Homo sapiens) (Q12851 whole entry): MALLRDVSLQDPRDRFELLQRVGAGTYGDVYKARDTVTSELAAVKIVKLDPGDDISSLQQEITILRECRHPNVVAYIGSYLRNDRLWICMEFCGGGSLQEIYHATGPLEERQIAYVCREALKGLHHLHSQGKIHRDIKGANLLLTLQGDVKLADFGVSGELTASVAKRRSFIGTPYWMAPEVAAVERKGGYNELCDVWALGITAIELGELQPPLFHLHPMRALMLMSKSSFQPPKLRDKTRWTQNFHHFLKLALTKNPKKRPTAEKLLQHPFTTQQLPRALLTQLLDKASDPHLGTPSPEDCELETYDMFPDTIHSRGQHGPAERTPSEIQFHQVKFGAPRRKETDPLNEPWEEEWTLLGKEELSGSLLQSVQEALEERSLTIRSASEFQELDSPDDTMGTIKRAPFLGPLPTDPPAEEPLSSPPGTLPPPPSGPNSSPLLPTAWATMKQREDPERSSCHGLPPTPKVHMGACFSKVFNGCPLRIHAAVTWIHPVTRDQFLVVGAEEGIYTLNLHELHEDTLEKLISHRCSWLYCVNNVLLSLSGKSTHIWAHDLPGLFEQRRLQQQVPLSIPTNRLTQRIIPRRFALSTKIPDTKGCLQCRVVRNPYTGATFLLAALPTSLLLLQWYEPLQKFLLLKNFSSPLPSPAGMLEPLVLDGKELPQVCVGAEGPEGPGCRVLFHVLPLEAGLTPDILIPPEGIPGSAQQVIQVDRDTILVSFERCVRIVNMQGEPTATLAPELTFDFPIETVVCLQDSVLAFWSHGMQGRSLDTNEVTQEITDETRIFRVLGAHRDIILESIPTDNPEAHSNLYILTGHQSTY

[13] = target: Phosphatidylinositol 4-phosphate 5-kinase type-1 gamma (Homo sapiens) (UniProt O60331); settings: Compound concentration 1000.0 nM
[14] = target: Interleukin-1 receptor-associated kinase 4 (Homo sapiens) (UniProt Q9NWZ3); settings: Compound concentration 1000.0 nM
[15] = target: Serine/threonine-protein kinase 35 (Homo sapiens) (UniProt Q8TDR2); settings: Compound concentration 1000.0 nM
Chain of Serine/threonine-protein kinase 35 (Homo sapiens) (Q8TDR2 whole entry): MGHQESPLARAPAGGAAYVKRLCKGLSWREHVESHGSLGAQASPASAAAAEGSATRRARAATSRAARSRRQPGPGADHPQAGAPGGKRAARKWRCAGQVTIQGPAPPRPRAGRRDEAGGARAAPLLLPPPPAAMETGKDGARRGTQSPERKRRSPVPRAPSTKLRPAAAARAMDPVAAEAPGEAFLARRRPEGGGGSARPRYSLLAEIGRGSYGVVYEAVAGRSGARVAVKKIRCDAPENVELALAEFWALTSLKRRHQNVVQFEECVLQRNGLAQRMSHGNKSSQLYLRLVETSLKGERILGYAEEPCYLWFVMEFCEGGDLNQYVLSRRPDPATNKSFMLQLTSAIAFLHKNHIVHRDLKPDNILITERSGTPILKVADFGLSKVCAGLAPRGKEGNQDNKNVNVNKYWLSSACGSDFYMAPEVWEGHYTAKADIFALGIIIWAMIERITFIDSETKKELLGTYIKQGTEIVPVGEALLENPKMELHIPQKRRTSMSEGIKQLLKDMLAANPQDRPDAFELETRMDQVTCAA

[16] = target: Vascular endothelial growth factor receptor 2 (Homo sapiens) (UniProt P35968); settings: Compound concentration 1000.0 nM
[17] = target: Tyrosine-protein kinase HCK (Homo sapiens) (UniProt P08631); settings: Compound concentration 1000.0 nM
[18] = target: Aurora kinase B (Homo sapiens) (UniProt Q96GD4); settings: Compound concentration 1000.0 nM
[19] = target: Ephrin type-B receptor 1 (Homo sapiens) (UniProt P54762); settings: Compound concentration 1000.0 nM
[20] = target: Tyrosine-protein kinase SYK (Homo sapiens) (UniProt P43405); settings: Compound concentration 1000.0 nM
[21] = target: Mitogen-activated protein kinase 15 (Homo sapiens) (UniProt Q8TD08); settings: Compound concentration 1000.0 nM
[22] = tested on: Epidermal growth factor receptor (Homo sapiens), P00533 [UNDEFINED MUTATION]; settings: Compound concentration 1000.0 nM
[23] = target: Ribosomal protein S6 kinase alpha-6 (Homo sapiens) (UniProt Q9UK32); settings: Compound concentration 1000.0 nM
[24] = target: Cyclin-G-associated kinase (Homo sapiens) (UniProt O14976); settings: Compound concentration 1000.0 nM
[25] = target: 5-hydroxytryptamine receptor 2B (Homo sapiens, UniProt P41595); assay: 5-HT2B (h) CEREP ligand profiling; settings: filed as agonist, Compound concentration 10.0 uM
[26] = tested on: Mast/stem cell growth factor receptor Kit (Homo sapiens), P10721 [D816V]; settings: Compound concentration 1000.0 nM
[27] = target: Death-associated protein kinase 2 (Homo sapiens) (UniProt Q9UIK4); settings: Compound concentration 1000.0 nM
[28] = target: Dual specificity protein kinase CLK3 (Homo sapiens) (UniProt P49761); settings: Compound concentration 1000.0 nM
[29] = target: Ribosomal protein S6 kinase alpha-3 (Homo sapiens) (UniProt P51812); settings: Compound concentration 1000.0 nM
[30] = target: GABA-A receptor; anion channel (Rattus norvegicus) (UniProt O09028+P15431+P18506+P18508+P19969+P20236+P23574+P23576+P28471+P28473+P30191+P62813+P63079+P63138+Q91ZM7+Q9ES14); settings: Compound concentration 10.0 uM
[31] = target: Phosphatidylinositol 4-phosphate 3-kinase C2 domain-containing subunit beta (Homo sapiens) (UniProt O00750); settings: Compound concentration 1000.0 nM
[32] = target: Serine/threonine-protein kinase pim-1 (Homo sapiens) (UniProt P11309); settings: Compound concentration 1000.0 nM
Chain of Serine/threonine-protein kinase pim-1 (Homo sapiens) (P11309 whole entry, looked up): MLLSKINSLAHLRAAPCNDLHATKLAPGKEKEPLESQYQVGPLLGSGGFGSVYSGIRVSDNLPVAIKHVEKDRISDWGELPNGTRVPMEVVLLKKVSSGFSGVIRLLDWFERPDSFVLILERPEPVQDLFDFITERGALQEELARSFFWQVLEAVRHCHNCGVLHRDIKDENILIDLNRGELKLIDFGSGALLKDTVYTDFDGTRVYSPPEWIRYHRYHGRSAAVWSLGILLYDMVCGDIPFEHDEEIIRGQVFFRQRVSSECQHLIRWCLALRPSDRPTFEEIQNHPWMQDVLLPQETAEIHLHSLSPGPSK

[33] = target: Macrophage-stimulating protein receptor (Homo sapiens) (UniProt Q04912); settings: Compound concentration 1000.0 nM
[34] = target: Bone morphogenetic protein receptor type-1B (Homo sapiens) (UniProt O00238); settings: Compound concentration 1000.0 nM
[35] = target: Leucine-rich repeat serine/threonine-protein kinase 2 (Homo sapiens) (UniProt Q5S007); settings: Compound concentration 1000.0 nM
Chain of Leucine-rich repeat serine/threonine-protein kinase 2 (Homo sapiens) (Q5S007 whole entry): as the sequence (Q5S007 whole entry G2019S) above, with S2019G counted along it

[36] = target: Serine/threonine-protein kinase VRK2 (Homo sapiens) (UniProt Q86Y07); settings: Compound concentration 1000.0 nM
[37] = target: Serine/threonine-protein kinase WNK4 (Homo sapiens) (UniProt Q96J92); settings: Compound concentration 1000.0 nM
[38] = target: Microtubule-associated serine/threonine-protein kinase 1 (Homo sapiens) (UniProt Q9Y2H9); settings: Compound concentration 1000.0 nM
[39] = target: Myosin light chain kinase, smooth muscle (Homo sapiens) (UniProt Q15746); settings: Compound concentration 1000.0 nM
[40] = target: Myosin-IIIa (Homo sapiens) (UniProt Q8NEV4); settings: Compound concentration 1000.0 nM

Chain of Serine/threonine-protein kinase PAK 3 (Homo sapiens) (O75914 whole entry, looked up): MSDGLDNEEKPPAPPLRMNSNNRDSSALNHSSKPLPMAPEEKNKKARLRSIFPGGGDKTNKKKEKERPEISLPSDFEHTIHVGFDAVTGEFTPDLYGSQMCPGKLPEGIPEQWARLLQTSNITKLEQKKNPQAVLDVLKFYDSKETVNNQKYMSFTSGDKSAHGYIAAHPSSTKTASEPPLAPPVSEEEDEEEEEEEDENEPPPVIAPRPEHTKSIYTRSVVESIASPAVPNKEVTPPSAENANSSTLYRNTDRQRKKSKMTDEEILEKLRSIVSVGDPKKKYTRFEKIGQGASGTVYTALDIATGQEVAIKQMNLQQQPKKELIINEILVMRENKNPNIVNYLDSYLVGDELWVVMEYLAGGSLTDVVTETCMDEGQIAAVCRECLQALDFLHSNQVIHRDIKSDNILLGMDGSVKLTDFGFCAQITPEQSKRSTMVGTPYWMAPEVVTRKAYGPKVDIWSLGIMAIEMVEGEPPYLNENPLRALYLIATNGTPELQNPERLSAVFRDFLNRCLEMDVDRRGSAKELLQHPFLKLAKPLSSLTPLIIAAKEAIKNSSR

CNC(=O)Nc1ccc2c(c1)[C@@]1(CC2)OC(=O)N(CC(=O)N(Cc2ccc(F)cc2)[C@@H](C)C(F)(F)F)C1=O [A-486]
inactive: residual activity [1] 91% | residual activity [2] 100% | residual activity [3] 100% | residual activity [4] 81% | residual activity [5] 100% | residual activity [6] 90% | residual activity [7] 100% | residual activity [8] 100% | residual activity [9] 100% | residual activity [10] 76% | residual activity [11] 83% | residual activity [12] 92% | residual activity [13] 100% | residual activity [14] 94% | residual activity [15] 85% | residual activity [16] 84% | residual activity [17] 100% | residual activity [18] 93% | residual activity [19] 100% | residual activity [20] 82% | residual activity [21] 93% | residual activity [22] 100% | residual activity [23] 82% | residual activity [24] 100% | inhibition [25] 5% | residual activity [26] 96% | residual activity [27] 100% | residual activity [28] 84% | residual activity [29] 75% | inhibition [30] 15.6% | residual activity [31] 99% | residual activity [32] 100% | residual activity [33] 100% | residual activity [34] 100% | residual activity [35] 71% | residual activity [36] 97% | residual activity [37] 100% | residual activity [38] 85% | residual activity [39] 88% | residual activity [40] 100%

CNC(=O)Nc1ccc2c(c1)CC[C@@]21OC(=O)N(CC(=O)N(Cc2ccc(F)cc2)[C@@H](C)C(F)(F)F)C1=O [A-485]
inactive: residual activity [1] 91% | residual activity [2] 88% | residual activity [3] 86% | residual activity [4] 72% | residual activity [5] 100% | residual activity [6] 73% | residual activity [7] 71% | residual activity [8] 100% | residual activity [9] 97% | residual activity [10] 78% | residual activity [11] 90% | residual activity [12] 76% | residual activity [13] 100% | residual activity [14] 78% | residual activity [15] 89% | residual activity [16] 83% | residual activity [17] 99% | residual activity [18] 86% | residual activity [19] 97% | residual activity [20] 70% | residual activity [21] 74% | residual activity [22] 90% | residual activity [23] 81% | residual activity [24] 100% | inhibition [25] 73% | residual activity [26] 70% | residual activity [27] 92% | residual activity [28] 83% | residual activity [29] 88% | inhibition [30] 19.7% | residual activity [31] 100% | residual activity [32] 100% | residual activity [33] 77% | residual activity [34] 82% | residual activity [35] 79% | residual activity [36] 91% | residual activity [37] 73% | residual activity [38] 94% | residual activity [39] 66% | residual activity [40] 100%
